The conditions of this data set: PEG-stabilized DSPC/Chol/PEG(2000)-DSPE liposome formulation (40 mg/ml total lipid, 12 mg/ml WSA1); buffer and serum; 48h incubation at 37° C. How it is done: The liposomes are loaded by use of citric acid pH-gradient. Liposomes are prepared in 500 mM citrate buffer with pH 4.0 The external medium is titrated to pH 7.7 with sodium carbonate. WSA is thereafter added and allowed to load for 20 minutes at 60° C. The final formulation contains 40 mg/ml of total lipid and 12 mg/ml of WSA1 which corresponds to about 1×10^5 WSA, or 1×10^6 10 B, per liposome.

On to “1,8-diamino-4-N-3- [12-(N-9-acridinyl-3-aminopropyl)-p-carborane-1-yl] propyl-4-azooctane hydrogen chloride [WSA1]”, for which the “encapsulated WSA 1 released” value is recorded as “less than 15%”.

(Values after patent US6562316B1, “Drug delivery system with two-step targeting” (priority 1997, dated 2003).)
